Measurements: patent US6518399B1, “Receptor” (Smithkline Beecham Corporation, priority 1998, dated 2003)

T1: HA-GABAB-R2 (Homo sapiens, UniProt O75899)
T1 construct: heterodimerisation between full-length expressed GABAB-R1 and GABAB-R2 in mammalian cells; expressed in transfected cells; host or cells: HEK293T
T1 sequence (O75899 42-941): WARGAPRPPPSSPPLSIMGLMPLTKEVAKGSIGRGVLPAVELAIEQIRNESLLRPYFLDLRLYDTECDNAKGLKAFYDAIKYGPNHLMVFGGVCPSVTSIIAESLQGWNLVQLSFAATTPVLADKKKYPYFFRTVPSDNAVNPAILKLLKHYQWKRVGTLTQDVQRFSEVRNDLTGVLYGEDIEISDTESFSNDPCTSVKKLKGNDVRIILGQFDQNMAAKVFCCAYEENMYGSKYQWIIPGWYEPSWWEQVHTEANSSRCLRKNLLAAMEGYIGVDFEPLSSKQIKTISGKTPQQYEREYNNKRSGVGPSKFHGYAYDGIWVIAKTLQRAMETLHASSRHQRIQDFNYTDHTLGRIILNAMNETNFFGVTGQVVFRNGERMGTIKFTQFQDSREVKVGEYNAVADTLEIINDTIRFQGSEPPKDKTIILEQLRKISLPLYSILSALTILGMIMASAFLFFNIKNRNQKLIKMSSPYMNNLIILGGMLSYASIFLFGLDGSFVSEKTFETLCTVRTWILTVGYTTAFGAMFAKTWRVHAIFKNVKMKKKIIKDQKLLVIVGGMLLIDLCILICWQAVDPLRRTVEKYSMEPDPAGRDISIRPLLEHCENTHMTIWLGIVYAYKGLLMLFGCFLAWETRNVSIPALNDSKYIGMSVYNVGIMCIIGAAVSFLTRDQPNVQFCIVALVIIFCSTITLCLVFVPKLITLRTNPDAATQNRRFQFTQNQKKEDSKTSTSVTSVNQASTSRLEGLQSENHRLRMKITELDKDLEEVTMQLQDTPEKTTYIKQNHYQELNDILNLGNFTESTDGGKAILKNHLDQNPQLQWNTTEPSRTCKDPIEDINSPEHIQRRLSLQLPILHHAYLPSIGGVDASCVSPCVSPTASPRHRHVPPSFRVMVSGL

B1: GABAB-R1 C-terminal domain (C-terminal 108 amino acids of GABAB-R1), GAL4 fusion (receptor, not shown: small tags and cut ends)
chain: VPKMRRLITRGEWQSEAQDTMKTGSSTNNNEEEKSRLLEKENRELEKIIAEKEERVSELRHQLQSRQQLRSRRHPPTPPEPSGGLPRGPPEPPDRLSCDGSRVHLLYK
notes: Used as GAL4BD fusion in the library screen and as both GAL4BD and GAL4AD fusions in the direct test (all combinations); also called GABAB-R1 C-terminus; GAL4BD-GABAB-R1 C-terminus
B2: GABAB-R2 C-terminal domain, GAL4 fusion (receptor, not shown: small tags and cut ends)
chain: VPKLITLRTNPDAATQNRRFQFTQNQKKEDSKTSTSVTSVNQASTSRLEGLQSENHRLRMKITELDKDLEEVTMQLQDTPEKTTYIKQNHYQELNDILNLGNFTESTDGGKAILKNHLDQNPQLQWNTTEPSRTCKDPIEDINSPEHIQRRLSLQLPILHHAYLPSIGGVDASCVSPCVSPTASPRHRHVPPSFRVMVSGL
notes: Only the intracellular C-terminal domain of GABAB-R2 was used; also called GABAB-R2 C-terminus; YTH HITS

What was measured:
[1] = biological target: T1, HA-GABAB-R2; experiment: [3H]-CGP54626 binding, HEK293T cells transfected with HA-GABAB-R2 alone; details: HA-GABAB-R2 alone (data not shown)
Excerpt: […]. […] […]

[2] = biological target: HA-GABAB-R1b (Homo sapiens, UniProt Q9UBS5); experiment: [3H]-CGP54626 binding, HEK293T membranes expressing HA-GABAB-R1b alone; details: HA-GABAB-R1b expressed alone
[3] = test system: GABAB-R1a, GABAB-R1b or GABAB-R2 receptors expressed alone; type: cell-based, human; details: for Functional response, CFTR or GIRK1/4 current: GABAB-R1a, GABAB-R1b or GABAB-R2 expressed singly with CFTR or GIRK1/4
Procedure: Adult female Xenopus laevis (Blades Biologicals) were anaesthetised using 0.2% tricaine (3-aminobenzoic acid ethyl ester), killed and the ovaries rapidly removed. […] Single stage V and VI oocytes were transferred to ND96 solution (96 mM NaCl, 2 mM KCl, 1 mM MgCl2, 1.8 mM CaCl2, 5 mM HEPES; pH 7.5 at 25° C.) which contained 50 μg ml^−1 gentamycin and stored at 18° C.
GABAB-R1a, GABAB-R1b (both in pcDNA3.1rev, Invitrogen), GABAB-R2, GIRK1, GIRK4 (in pcDNA3) and cystic fibrosis transmembrane regulator (CFTR; in pBluescript, Stratagene) were linearised and transcribed to RNA using T7 or T3 polymerase (Promega Wizard kit). m′G(5′)pp(5′)GTP capped cRNA was injected into oocytes (20-50 nl of 1 μgμl^−1 RNA per oocyte) and whole-cell currents were recorded using two-microelectrode voltage-clamp (Geneclamp amplifier, Axon instruments Inc.) 3 to 7 days post-RNA injection. […] In all experiments oocytes were voltage-clamped at a holding potential of −60 mV in ND96 solution (superfused at 2 ml per min.) and agonists were applied by addition to this extracellular solution. In GIRK experiments the extracellular solution was changed to a high potassium solution prior to agonist application, to facilitate the recording of inward potassium currents. Current-voltage curves were constructed by applying 200 ms voltage-clamp pulses from the holding potential of […] to test potentials between −100 mV and +50 mV.

[4] = biological target: the molecule itself; experiment: yeast two hybrid, GAL4BD and GAL4AD fusions of the C-termini (FIG. 5); the library screen also did not retrieve the GABAB-R1 C-terminal domain
[5] = biological target: B2; experiment: yeast two hybrid, direct test of the C-termini (β-galactosidase, FIG. 5); GABAB-R2 C-terminal domain also recovered 33 times in the library screen with the GABAB-R1 bait
[6] = biological target: the molecule itself; experiment: yeast two hybrid, GAL4BD and GAL4AD fusions of the C-termini (FIG. 5)

Chain of HA-GABAB-R1b (Q9UBS5 30-844 isoform Q9UBS5-2 limits assumed): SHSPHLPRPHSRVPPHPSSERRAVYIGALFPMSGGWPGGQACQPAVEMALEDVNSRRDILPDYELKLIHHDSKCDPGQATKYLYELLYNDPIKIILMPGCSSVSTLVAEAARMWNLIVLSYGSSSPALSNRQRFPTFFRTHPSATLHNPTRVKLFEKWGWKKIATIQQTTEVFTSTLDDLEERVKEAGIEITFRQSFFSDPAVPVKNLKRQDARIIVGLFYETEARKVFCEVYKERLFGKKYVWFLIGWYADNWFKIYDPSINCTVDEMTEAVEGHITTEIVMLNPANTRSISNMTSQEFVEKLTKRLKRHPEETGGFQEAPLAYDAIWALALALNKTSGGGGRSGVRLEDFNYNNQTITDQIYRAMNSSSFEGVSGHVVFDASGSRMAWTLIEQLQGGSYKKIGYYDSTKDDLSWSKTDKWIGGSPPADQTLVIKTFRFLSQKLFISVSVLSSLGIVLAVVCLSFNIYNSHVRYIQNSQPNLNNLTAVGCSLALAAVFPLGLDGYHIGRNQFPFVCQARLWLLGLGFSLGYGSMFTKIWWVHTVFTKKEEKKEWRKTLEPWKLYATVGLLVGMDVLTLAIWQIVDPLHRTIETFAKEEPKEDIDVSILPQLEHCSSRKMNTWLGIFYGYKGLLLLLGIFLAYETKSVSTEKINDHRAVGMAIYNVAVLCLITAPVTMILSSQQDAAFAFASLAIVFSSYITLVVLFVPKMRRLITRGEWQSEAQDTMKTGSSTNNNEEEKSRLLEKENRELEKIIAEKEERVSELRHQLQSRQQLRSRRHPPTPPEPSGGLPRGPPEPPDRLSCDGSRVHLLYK

For C[C@H](NC[C@H](O)CP(=O)(O)CC1CCCCC1)c1ccc(Cl)c(Cl)c1 [[3H]-CGP54626], the “Specific binding of radioligand” value [1] was “unable to detect any [3H]-CGP54626 specific binding” and the “Specific binding of radioligand” value [2] was “high levels of specific binding”.

With NCCCC(=O)O [GABA, γ-amino-butyric acid] the “Functional response, GIRK1/4 current” value ([3]; GABAB-R1a and GABAB-R1b expressed alone (data not shown)) was “gave no response to GABA” and the “Functional response, CFTR or GIRK1/4 current” value [3] was “No functional responses”.

NCC(CC(=O)O)c1ccc(Cl)cc1 (centres unmarked) [Baclofen] was tested, and the “Functional response, CFTR or GIRK1/4 current” value [3] was “No functional responses”.

B1: no binding [4]; binds [5].

B2: no binding [6].
